Test results: PubChem BioAssay (NCI)
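Cells were grown in 96-well plates and exposed to each compound for 48 hours at five concentrations; endpoints were interpolated linearly between bracketing concentrations, or set to the highest concentration if not reached. GI50 is the concentration that inhibits growth by half. At the TGI there is no net growth.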

Columns and labels:
Assay in all cases: NCI tumour cell line growth inhibition, 48 h
[1] = system: MCF7 breast
[2] = system: 786-0 renal
[3] = system: HOP-62 NSCLC
[4] = system: BT-549 breast
[5] = system: HOP-92 NSCLC
[6] = system: MDA-MB-231 breast
[7] = system: ACHN renal
[8] = system: PC-3 prostate
[9] = system: SW-620 colon
[10] = system: SF-268 CNS

Compound | TGI [1] [µM] | TGI [2] [µM] | TGI [3] [µM] | TGI [4] [µM] | TGI [5] [µM] | TGI [6] [µM] | TGI [7] [µM] | TGI [8] [µM] | TGI [9] [µM] | TGI [10] [µM] | GI50 [2] [µM] | GI50 [3] [µM] | GI50 [4] [µM] | GI50 [6] [µM] | GI50 [8] [µM] | GI50 [9] [µM] | GI50 [1] [µM] | GI50 [5] [µM] | GI50 [7] [µM] | GI50 [10] [µM]
O=c1oc2c(Br)c(O)c(Br)cc2c2ccccc12 | 48.7 | > 100 | > 100 | 75.3 | 74.6 | 66.1 | > 100 | 50.4 | > 100 | 69 | – | – | – | – | – | – | – | – | – | –
Nc1ccn(C2OC(CO[P+](=O)OC3C(CO[P+](=O)OC4C(CO[P+](=O)OC5C(CO[P+](=O)OC6C(CO[P+](=O)OC7C(CO[P+](=O)OC8C(CO[P+](=O)OC9C(CO[P+](=O)OC%10C(CO[P+](=O)OC%11C(CO)OC(n%12ccc(N)nc%12=O)C%11(F)F)OC(n%11ccc(N)nc%11=O)C%10(F)F)OC(n%10ccc(N)nc%10=O)C9(F)F)OC(n9ccc(N)nc9=O)C8(F)F)OC(n8ccc(N)nc8=O)C7(F)F)OC(n7ccc(N)nc7=O)C6(F)F)OC(n6ccc(N)nc6=O)C5(F)F)OC(n5ccc(N)nc5=O)C4(F)F)OC(n4ccc(N)nc4=O)C3(F)F)C(O)C2(F)F)c(=O)n1 (stereo not given) | > 100 | > 100 | – | – | – | > 100 | – | > 100 | > 100 | – | 0.0605 | 0.0175 | 0.426 | 0.522 | 80.5 | 0.168 | – | – | – | –
Cn1c(=O)c(Sc2ccccc2F)cc2cnc(NC3CCOCC3)nc21 | > 25 | > 25 | > 25 | > 25 | > 25 | > 25 | > 25 | > 25 | > 25 | > 25 | > 25 | > 25 | > 25 | > 25 | > 25 | > 25 | > 25 | > 25 | > 25 | > 25
C=CC[Se]C(=O)c1ccccc1OC(C)=O | 4.31 | 3.49 | – | 3.2 | 6.12 | – | 3.21 | 2.48 | 3.9 | 6.5 | 1.88 | – | 1.66 | – | 0.717 | 1.87 | 1.83 | 2.28 | 1.76 | 2.49
O=C1OCC2=C1C(c1ccccc1)c1cc3c(cc1N2CCO)CCC3 (stereo not given) | > 25 | > 14.5 | > 25 | > 25 | – | > 25 | > 25 | > 25 | > 25 | 1.51 | 0.0988 | 0.131 | 0.223 | 0.689 | 0.0986 | 0.0879 | 0.0841 | – | 0.148 | 0.0833
S=C(Nc1ccc(-c2nc3ccccc3s2)cc1)Nc1ccccn1 | > 100 | 70.4 | > 100 | > 100 | 64.1 | 48.3 | > 70.8 | > 71.7 | > 100 | > 100 | 24.7 | 44.4 | 14.9 | 16.6 | 23.6 | 40.1 | > 100 | 16.7 | 26.3 | 46.6
COC(=O)c1c2c(c[n+]([O-])c1C)C(=O)C(NCc1ccccc1)=CC2=O | 0.726 | 3.8 | 2.94 | 2.54 | 2.72 | 2.27 | 2.2 | 1.91 | 1.29 | 3.94 | 1.69 | 1.42 | 1.19 | 0.333 | 0.274 | 0.319 | 0.224 | 1.04 | 1.02 | 0.998
